Laboratory results taken from publication PMC6437697 (Journal of Medicinal Chemistry, 2019).

Legend:
Assay in all cases: KINOMEscan
Format in all cases: binding
Settings in all cases: read-out: % control activity remaining
TAOK2 = molecular target: T1, TAOK2 (Homo sapiens, UniProt Q9UL54)
T1 construct: purchased Eurofins DiscoverX KINOMEscan
T1 sequence (Q9UL54 1-1235): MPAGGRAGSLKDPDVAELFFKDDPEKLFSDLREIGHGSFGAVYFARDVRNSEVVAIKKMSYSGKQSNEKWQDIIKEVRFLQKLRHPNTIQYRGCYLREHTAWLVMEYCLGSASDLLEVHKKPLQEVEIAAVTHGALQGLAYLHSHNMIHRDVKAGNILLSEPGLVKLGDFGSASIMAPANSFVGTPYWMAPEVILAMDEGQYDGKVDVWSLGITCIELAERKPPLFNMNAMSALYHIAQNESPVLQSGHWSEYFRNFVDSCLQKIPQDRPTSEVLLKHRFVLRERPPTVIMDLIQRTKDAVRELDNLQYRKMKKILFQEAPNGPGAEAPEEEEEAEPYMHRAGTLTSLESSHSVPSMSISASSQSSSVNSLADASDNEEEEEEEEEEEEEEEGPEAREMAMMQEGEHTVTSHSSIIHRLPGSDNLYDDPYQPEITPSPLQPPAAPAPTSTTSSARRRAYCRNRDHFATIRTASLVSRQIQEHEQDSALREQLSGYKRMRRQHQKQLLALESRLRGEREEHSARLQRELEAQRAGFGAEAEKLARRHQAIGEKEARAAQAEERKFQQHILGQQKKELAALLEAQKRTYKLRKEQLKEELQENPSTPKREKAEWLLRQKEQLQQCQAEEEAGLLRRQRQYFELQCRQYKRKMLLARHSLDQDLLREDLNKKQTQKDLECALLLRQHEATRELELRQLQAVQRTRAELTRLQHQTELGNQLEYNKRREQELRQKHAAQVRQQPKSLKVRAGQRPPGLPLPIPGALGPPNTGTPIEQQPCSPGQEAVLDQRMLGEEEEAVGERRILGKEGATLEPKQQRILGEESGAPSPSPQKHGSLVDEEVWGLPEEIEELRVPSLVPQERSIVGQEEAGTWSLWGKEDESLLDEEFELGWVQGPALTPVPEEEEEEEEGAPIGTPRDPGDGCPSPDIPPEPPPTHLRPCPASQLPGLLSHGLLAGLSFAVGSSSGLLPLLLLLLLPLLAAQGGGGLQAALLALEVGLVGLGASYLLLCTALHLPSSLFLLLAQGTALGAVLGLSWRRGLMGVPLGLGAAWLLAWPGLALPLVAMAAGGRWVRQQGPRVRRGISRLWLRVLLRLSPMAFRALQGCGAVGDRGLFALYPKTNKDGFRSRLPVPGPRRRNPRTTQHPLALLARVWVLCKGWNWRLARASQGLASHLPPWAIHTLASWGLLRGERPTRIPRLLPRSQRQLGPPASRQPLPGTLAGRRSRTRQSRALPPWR

MTOR = molecular target: T2, MTOR (Homo sapiens, UniProt P42345)
T2 construct: purchased Eurofins DiscoverX KINOMEscan

LRRK2 = molecular target: T3, LRRK2 (Homo sapiens, UniProt Q5S007)
T3 construct: purchased Eurofins DiscoverX KINOMEscan
T3 sequence (Q5S007 whole entry): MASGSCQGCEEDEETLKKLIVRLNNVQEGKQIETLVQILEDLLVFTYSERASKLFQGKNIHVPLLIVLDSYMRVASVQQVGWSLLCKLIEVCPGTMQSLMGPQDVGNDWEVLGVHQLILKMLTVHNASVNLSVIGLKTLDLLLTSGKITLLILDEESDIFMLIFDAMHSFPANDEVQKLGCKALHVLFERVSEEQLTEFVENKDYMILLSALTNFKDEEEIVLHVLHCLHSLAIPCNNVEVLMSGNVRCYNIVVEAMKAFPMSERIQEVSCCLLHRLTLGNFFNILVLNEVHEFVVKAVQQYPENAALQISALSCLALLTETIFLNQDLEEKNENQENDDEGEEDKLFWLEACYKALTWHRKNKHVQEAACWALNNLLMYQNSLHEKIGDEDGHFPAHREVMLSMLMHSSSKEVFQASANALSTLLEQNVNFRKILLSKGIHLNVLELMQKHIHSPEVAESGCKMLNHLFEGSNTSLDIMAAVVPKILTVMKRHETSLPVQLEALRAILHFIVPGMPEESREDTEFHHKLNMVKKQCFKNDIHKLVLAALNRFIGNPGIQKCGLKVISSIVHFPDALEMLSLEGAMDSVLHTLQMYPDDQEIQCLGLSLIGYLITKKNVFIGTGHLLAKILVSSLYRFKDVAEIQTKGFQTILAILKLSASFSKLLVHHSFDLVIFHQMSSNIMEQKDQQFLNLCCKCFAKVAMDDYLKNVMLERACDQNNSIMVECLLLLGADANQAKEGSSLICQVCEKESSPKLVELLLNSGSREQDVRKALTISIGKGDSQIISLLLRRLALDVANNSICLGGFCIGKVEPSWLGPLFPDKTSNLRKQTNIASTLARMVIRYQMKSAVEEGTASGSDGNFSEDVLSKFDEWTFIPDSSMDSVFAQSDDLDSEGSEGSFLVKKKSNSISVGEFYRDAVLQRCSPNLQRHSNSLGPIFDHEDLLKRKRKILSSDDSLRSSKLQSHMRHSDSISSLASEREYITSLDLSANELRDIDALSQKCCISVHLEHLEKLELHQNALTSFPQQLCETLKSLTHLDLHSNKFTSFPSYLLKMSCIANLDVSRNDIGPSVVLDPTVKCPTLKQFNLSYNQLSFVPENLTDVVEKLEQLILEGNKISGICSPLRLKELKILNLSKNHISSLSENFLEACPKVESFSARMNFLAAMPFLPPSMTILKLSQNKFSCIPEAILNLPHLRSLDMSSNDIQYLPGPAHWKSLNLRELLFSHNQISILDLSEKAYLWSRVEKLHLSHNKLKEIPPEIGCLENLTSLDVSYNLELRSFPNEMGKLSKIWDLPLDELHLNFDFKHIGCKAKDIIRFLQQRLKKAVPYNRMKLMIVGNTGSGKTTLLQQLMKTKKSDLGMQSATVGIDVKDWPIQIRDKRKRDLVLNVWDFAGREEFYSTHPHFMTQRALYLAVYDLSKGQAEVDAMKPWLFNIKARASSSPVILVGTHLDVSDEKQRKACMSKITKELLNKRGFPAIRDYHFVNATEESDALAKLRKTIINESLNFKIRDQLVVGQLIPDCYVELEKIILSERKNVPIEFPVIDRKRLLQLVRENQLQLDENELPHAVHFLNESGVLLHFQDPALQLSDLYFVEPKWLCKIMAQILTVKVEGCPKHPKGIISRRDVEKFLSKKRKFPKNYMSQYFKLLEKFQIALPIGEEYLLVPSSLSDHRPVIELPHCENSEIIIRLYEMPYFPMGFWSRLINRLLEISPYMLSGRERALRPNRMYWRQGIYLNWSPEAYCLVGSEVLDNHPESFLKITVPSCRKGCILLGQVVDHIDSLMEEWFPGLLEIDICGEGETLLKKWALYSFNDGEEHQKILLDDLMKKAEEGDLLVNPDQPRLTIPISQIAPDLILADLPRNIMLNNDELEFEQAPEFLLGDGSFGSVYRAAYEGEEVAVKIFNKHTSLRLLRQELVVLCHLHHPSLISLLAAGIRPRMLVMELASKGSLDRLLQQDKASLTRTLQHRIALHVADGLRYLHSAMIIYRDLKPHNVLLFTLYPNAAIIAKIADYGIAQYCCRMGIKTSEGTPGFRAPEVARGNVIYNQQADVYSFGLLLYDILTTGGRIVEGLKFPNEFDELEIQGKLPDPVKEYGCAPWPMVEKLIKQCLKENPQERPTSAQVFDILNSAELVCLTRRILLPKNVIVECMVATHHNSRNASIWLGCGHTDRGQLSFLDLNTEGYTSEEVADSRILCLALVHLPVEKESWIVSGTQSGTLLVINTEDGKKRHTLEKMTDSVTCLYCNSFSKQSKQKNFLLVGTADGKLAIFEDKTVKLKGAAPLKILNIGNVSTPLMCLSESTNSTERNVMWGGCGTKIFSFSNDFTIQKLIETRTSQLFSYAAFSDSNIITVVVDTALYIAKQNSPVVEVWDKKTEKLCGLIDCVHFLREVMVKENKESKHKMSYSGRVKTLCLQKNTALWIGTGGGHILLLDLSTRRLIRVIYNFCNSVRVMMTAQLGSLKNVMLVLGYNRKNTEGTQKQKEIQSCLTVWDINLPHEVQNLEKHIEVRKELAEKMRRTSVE

[1] = molecular target: T4, ABL1(F317I)-nonphosphorylated (Homo sapiens, UniProt P00519, F317I)
T4 construct: purchased Eurofins DiscoverX KINOMEscan
T4 sequence (P00519 whole entry F317I): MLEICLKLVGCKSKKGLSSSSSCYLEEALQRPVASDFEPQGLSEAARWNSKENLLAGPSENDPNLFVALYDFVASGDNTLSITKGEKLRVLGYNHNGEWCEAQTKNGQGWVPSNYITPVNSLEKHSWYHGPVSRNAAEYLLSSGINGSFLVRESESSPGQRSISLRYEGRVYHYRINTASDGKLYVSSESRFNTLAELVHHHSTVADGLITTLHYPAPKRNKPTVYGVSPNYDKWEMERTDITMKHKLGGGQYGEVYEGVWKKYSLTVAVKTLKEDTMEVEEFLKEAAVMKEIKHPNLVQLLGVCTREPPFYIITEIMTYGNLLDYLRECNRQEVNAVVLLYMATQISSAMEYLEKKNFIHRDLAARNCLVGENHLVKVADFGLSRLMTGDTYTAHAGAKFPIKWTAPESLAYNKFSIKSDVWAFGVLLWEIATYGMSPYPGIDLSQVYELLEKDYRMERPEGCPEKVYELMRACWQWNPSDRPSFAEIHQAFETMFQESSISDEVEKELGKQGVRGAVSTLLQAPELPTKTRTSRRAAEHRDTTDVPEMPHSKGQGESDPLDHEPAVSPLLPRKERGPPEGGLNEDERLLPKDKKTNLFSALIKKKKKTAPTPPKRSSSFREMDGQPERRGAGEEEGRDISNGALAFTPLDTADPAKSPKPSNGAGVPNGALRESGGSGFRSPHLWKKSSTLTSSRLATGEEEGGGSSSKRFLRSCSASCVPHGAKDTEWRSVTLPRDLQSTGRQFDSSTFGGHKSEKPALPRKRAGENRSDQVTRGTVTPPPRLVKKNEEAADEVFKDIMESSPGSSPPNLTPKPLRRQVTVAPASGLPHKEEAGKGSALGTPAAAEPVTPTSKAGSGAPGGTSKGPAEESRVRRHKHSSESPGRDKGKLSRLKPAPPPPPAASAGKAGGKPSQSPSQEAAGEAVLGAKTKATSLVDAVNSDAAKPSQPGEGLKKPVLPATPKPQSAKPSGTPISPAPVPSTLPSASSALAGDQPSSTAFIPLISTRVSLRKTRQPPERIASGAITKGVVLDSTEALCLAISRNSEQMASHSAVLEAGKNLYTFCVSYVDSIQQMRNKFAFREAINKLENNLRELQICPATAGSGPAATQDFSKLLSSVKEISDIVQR

NEK10 = molecular target: T5, NEK10 (Homo sapiens, UniProt Q6ZWH5)
T5 construct: purchased Eurofins DiscoverX KINOMEscan
T5 sequence (Q6ZWH5 1-1172): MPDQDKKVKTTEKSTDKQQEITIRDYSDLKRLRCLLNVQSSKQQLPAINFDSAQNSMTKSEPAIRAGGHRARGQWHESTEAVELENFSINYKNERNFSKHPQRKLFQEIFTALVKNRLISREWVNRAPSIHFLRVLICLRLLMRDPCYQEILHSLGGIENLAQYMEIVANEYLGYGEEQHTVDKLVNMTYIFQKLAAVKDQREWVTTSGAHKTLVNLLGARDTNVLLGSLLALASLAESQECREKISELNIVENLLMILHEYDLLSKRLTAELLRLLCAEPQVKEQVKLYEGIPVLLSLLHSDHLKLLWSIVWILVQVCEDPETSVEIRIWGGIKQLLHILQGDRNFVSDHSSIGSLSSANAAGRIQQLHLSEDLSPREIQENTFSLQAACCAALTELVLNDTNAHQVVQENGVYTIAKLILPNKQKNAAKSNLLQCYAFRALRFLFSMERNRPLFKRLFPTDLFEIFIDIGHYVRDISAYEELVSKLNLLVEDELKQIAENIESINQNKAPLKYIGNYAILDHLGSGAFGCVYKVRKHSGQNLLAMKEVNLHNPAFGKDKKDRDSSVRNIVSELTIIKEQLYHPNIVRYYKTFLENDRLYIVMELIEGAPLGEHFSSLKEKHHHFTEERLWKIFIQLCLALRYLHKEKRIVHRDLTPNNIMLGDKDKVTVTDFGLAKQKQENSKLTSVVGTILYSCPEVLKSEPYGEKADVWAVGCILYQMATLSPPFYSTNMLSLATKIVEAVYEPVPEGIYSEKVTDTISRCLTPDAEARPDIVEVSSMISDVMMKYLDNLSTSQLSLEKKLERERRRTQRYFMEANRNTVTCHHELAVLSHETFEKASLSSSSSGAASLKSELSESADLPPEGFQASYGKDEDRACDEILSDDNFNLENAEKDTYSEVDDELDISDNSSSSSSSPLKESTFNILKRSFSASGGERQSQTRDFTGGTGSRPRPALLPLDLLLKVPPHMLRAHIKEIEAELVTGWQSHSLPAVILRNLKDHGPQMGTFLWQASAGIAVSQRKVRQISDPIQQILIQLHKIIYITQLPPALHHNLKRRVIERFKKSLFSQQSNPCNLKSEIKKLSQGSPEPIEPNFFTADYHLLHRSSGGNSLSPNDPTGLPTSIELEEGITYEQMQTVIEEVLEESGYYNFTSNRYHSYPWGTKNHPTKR

MEK5 = molecular target: T6, MEK5 (Homo sapiens, UniProt Q13163)
T6 construct: purchased Eurofins DiscoverX KINOMEscan
T6 sequence (Q13163 1-448): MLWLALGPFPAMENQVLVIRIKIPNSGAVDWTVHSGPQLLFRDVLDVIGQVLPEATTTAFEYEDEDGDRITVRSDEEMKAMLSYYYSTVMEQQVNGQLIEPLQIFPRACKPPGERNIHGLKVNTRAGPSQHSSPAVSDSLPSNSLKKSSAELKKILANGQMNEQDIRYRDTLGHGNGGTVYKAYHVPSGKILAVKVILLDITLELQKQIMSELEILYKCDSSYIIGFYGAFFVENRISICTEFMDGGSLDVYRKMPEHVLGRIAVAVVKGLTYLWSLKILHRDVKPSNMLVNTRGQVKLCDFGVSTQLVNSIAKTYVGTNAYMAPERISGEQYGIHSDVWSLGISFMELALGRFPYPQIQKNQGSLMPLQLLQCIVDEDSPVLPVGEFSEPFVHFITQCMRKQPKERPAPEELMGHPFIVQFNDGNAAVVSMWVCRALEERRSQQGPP

## Clc1cc(NCC2CC2)c2ncc(-c3ccc4[nH]ncc4c3)n2n1 [compound 2, 6-Chloro-N-(cyclopropylmethyl)-3-(1H-indazol-5-yl)imidazo[1,2-b]pyridazin-8-amine]
TAOK2
  remaining binding at 1 µM: 87%
MTOR
  remaining binding at 1 µM: 98%
LRRK2
  remaining binding at 1 µM: 94%
[1]
  remaining binding at 1 µM: 71%
NEK10
  remaining binding at 1 µM: 92%
MEK5
  remaining binding at 1 µM: 85%

## O=C(CN1CCOCC1)N[C@H]1CC[C@H](Nc2cc(Cl)nn3c(-c4ccc5[nH]ncc5c4)cnc23)CC1 [compound 26]
TAOK2
  remaining binding at 1 µM: 100%
MTOR
  remaining binding at 1 µM: 100%
LRRK2
  remaining binding at 1 µM: 90%
[1]
  remaining binding at 1 µM: 28%
NEK10
  remaining binding at 1 µM: 72%
MEK5
  remaining binding at 1 µM: 95%

## CN1CCC(CNc2cc(Cl)nn3c(-c4cc5nc(Nc6ccccc6)[nH]c5cc4F)cnc23)CC1 [compound 31, 6-Chloro-3-(6-fluoro-2-(phenylamino)-1H-benzo[d]imidazol-5-yl)-N-((1-methylpiperidin-4-yl)methyl)imidazo[1,2-b]pyridazin-8-amine]
TAOK2
  remaining binding at 1 µM: 98%
MTOR
  remaining binding at 1 µM: 89%
LRRK2
  remaining binding at 1 µM: 100%
[1]
  remaining binding at 1 µM: 63%
NEK10
  remaining binding at 1 µM: 100%
MEK5
  remaining binding at 1 µM: 71%
